Consider 34 compounds from PubChem BioAssay AID651919 (Sanford-Burnham Center for Chemical Genomics, 2012).

In experiment [1] the target is C-X-C chemokine receptor type 6 (Homo sapiens) (UniProt O00574). The experiment in a line: antagonism of CXCR6 versus CXCR5 signaling – cell-based, CHO-K1 PathHunter beta-arrestin, luminescence, set 4, selectivity assay for CXCR6 antagonist project, profiling panel (AID 651919). Particulars: CHO-K1 PathHunter CXCR6 beta-arrestin, CXCR6, mean of runs.
Experiment [2] has as its target C-X-C chemokine receptor type 5 (Homo sapiens) (UniProt P32302). The experiment is described as above. The note with it: CHO-K1 PathHunter CXCR5 beta-arrestin, CXCR5, mean of runs.

Structures are written as SMILES. “And” between values parts separate entries of the source, which are not always exact repeats. Identical values can stand only once. The source made the active and inactive calls.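 Rule for the calls: active = CXCR6 IC50 below 5 µM, and the CXCR5 counter screen gives no IC50 under five times the CXCR6 IC50; inactive = the rest.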

C-X-C chemokine receptor type 6 (Homo sapiens), sequence (O00574 whole entry, looked up): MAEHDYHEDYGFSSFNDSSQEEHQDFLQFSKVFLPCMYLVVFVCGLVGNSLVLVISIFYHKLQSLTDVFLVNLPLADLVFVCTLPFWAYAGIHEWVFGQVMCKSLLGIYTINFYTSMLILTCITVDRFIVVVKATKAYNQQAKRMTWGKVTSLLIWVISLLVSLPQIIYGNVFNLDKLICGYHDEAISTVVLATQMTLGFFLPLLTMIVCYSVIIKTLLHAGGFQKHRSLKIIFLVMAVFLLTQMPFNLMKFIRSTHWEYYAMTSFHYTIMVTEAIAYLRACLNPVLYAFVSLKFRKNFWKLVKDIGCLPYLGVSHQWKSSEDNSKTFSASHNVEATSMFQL

By IC50 is commonly meant the point on the concentration scale where inhibition reaches its midpoint. For the compound `COc1ccc(NC(=O)CN2C3CCCC2CC(NC(=O)c2cccc(OC)c2)C3)cc1` (stereo not drawn), the IC50 in experiment [1] and in experiment [2] was > 79 µM (inactive) each time.
In the case of `COc1ccc(NC(=O)CN2C3CCCC2CC(NC(=O)c2ccc4c(c2)OCO4)C3)cc1` (stereo not drawn), the IC50 in experiment [1] and in experiment [2] was > 79 µM (inactive) each time.
Regarding `COc1ccc(C(=O)NC2CC3CCCC(C2)N3CC(=O)Nc2ccc(Cl)cc2)cc1` (stereo not drawn), the IC50 in experiment [1] and in experiment [2] was > 79 µM (inactive) in each case.
With `COc1ccc(CN2C3CCCC2CC(NC(=O)c2cc(OC)c(OC)c(OC)c2)C3)cc1` (stereo not drawn), the IC50 result in experiment [1] is “inactive”. Moreover, the IC50 in experiment [2] is > 79 µM (inactive).
For `COc1cc(OC)cc(C(=O)NC2CC3CCCC(C2)N3CC(=O)Nc2ccc(C)cc2)c1` (stereo not drawn), in that order: > 79 µM (inactive) and > 79 µM (inactive).
For `COc1ccccc1NC(=O)CN1C2CCCC1CC(NC(=O)c1cc(OC)c(OC)c(OC)c1)C2` (stereo not drawn), in that order: 1.85 µM and > 79 µM (inactive).
As to `O=C(CN1C2CCCC1CC(NC(=O)c1ccc3c(c1)OCO3)C2)Nc1ccccc1` (stereo not drawn), the IC50 in experiment [1] and in experiment [2] was > 79 µM (inactive) in each case.
Turning to `COc1ccc(C(=O)NC2CC3CCCC(C2)N3CC(=O)Nc2ccc(Cl)cc2)cc1OC` (stereo not drawn), the IC50 in experiment [1] and in experiment [2] was > 79 µM (inactive) each time.
Take `COc1ccc(C(=O)NC2CC3CCCC(C2)N3CC(=O)Nc2ccc(F)cc2)cc1OC` (stereo not drawn): the IC50 in experiment [1] and in experiment [2] was > 79 µM (inactive) throughout.
Regarding `COc1ccc(NC(=O)CN2C3CCCC2CC(NC(=O)c2ccc(OC)cc2)C3)cc1` (stereo not drawn), the IC50 in experiment [1] and in experiment [2] was > 79 µM (inactive) each time.
On to `COc1ccc(C(=O)NC2CC3CCCC(C2)N3CC(=O)Nc2ccc(C)cc2)cc1` (stereo not drawn), for which the IC50 in experiment [1] and in experiment [2] was > 79 µM (inactive) throughout.
As for `COc1cc(OC)cc(C(=O)NC2CC3CCCC(C2)N3CC(=O)Nc2ccccc2)c1` (stereo not drawn), the values for the IC50 in experiment [1] and in experiment [2] were > 79 µM (inactive) and 12.5 µM, respectively.
With `COc1cc(C(=O)NC2CC3CCCC(C2)N3CC(=O)Nc2ccc(C)cc2)cc(OC)c1OC` (stereo not drawn), in experiment [1], the IC50 entry is “inactive”. In experiment [2], the IC50 was > 79 µM (inactive).
As for `O=C(CN1C2CCCC1CC(NC(=O)c1ccc3c(c1)OCO3)C2)Nc1ccc(Cl)cc1` (stereo not drawn), the IC50 in experiment [1] and in experiment [2] was > 79 µM (inactive) in each case.
As for `COc1cc(C(=O)NC2CC3CCCC(C2)N3CC(=O)Nc2ccccc2)cc(OC)c1OC` (stereo not drawn), the IC50 was 3.4 µM and 4.74 µM in experiment [1]; > 79 µM (inactive) in experiment [2].
As for `Cc1ccc(NC(=O)CN2C3CCCC2CC(NC(=O)c2ccc4c(c2)OCO4)C3)cc1` (stereo not drawn), the IC50 in experiment [1] and in experiment [2] was > 79 µM (inactive) in each case.
Regarding `COc1ccc(C(=O)NC2CC3CCCC(C2)N3CC(=O)Nc2ccccc2)cc1OC` (stereo not drawn), the IC50 in experiment [1] and in experiment [2] was > 79 µM (inactive) throughout.
Consider `COc1ccc(NC(=O)CN2C3CCCC2CC(NC(=O)c2cc(OC)cc(OC)c2)C3)cc1` (stereo not drawn), for which the IC50 in experiment [1] and in experiment [2] was > 79 µM (inactive) each time.
For `O=C(CN1C2CCCC1CC(NC(=O)c1ccccc1)C2)Nc1ccccc1` (stereo not drawn), the IC50 in experiment [1] and in experiment [2] was > 79 µM (inactive) throughout.
In the case of `COc1cccc(C(=O)NC2CC3CCCC(C2)N3CC(=O)Nc2ccc(Cl)cc2)c1` (stereo not drawn), the IC50 in experiment [1] and in experiment [2] was > 79 µM (inactive) in each case.
As for `COc1cc(C(=O)NC2CC3CCCC(C2)N3CC(=O)Nc2ccc(Cl)cc2)cc(OC)c1OC` (stereo not drawn), the values for the IC50 in experiment [1] and in experiment [2] were 1.48 µM and > 79 µM (inactive), respectively.
For `COc1cc(OC)cc(C(=O)NC2CC3CCCC(C2)N3CC(=O)Nc2ccc(F)cc2)c1` (stereo not drawn) the same measures were > 79 µM (inactive) and 43.4 µM.
In the case of `COc1cccc(C(=O)NC2CC3CCCC(C2)N3CC(=O)Nc2ccc(F)cc2)c1` (stereo not drawn), the IC50 in experiment [1] and in experiment [2] was > 79 µM (inactive) throughout.
Take `COc1ccc(NC(=O)CN2C3CCCC2CC(NC(=O)c2ccc(OC)c(OC)c2)C3)cc1` (stereo not drawn): the IC50 in experiment [1] and in experiment [2] was > 79 µM (inactive) in each case.
Turning to `COc1ccc(C(=O)NC2CC3CCCC(C2)N3CC(=O)Nc2ccccc2)cc1` (stereo not drawn), the IC50 in experiment [1] and in experiment [2] was > 79 µM (inactive) in each case.
Take `COc1cc(C(=O)NC2CC3CCCC(C2)N3CC(=O)Nc2ccc(F)cc2)cc(OC)c1OC` (stereo not drawn): the IC50 entry in experiment [1] was “inactive”. Also, in experiment [2], the IC50 is > 79 µM (inactive).
For `COc1ccc(NC(=O)CN2C3CCCC2CC(NC(=O)c2cc(OC)c(OC)c(OC)c2)C3)cc1` (stereo not drawn) the same measures were “inactive” and > 79 µM (inactive).
On to `COc1cc(C(=O)NC2CC3CCCC(C2)N3CC(=O)Nc2ccccc2Cl)cc(OC)c1OC` (stereo not drawn), for which the IC50 in experiment [1] is 0.356 µM and 0.137 µM; in experiment [2], > 79 µM (inactive).
Regarding `O=C(CN1C2CCCC1CC(NC(=O)c1ccc3c(c1)OCO3)C2)Nc1ccc(F)cc1` (stereo not drawn), the IC50 in experiment [1] and in experiment [2] was > 79 µM (inactive) each time.
Take `COc1ccc(C(=O)NC2CC3CCCC(C2)N3CC(=O)Nc2ccc(F)cc2)cc1` (stereo not drawn): the IC50 in experiment [1] and in experiment [2] was > 79 µM (inactive) each time.
For `COc1cccc(C(=O)NC2CC3CCCC(C2)N3CC(=O)Nc2ccccc2)c1` (stereo not drawn), the IC50 in experiment [1] and in experiment [2] was > 79 µM (inactive) each time.
Regarding `COc1ccc(C(=O)NC2CC3CCCC(C2)N3CC(=O)Nc2ccc(C)cc2)cc1OC` (stereo not drawn), the IC50 in experiment [1] and in experiment [2] was > 79 µM (inactive) in each case.
Regarding `COc1cc(OC)cc(C(=O)NC2CC3CCCC(C2)N3CC(=O)Nc2ccc(Cl)cc2)c1` (stereo not drawn), the IC50 in experiment [1] and in experiment [2] was > 79 µM (inactive) each time.
As for `COc1cccc(C(=O)NC2CC3CCCC(C2)N3CC(=O)Nc2ccc(C)cc2)c1` (stereo not drawn), the IC50 in experiment [1] and in experiment [2] was > 79 µM (inactive) in each case.
